Experiment [1] deals with EGFR L858R (Homo sapiens (Human), UniProt P00533, L858R). Nature of the experiment: Biochemical EGFR inhibition assay, EGFR L858R. The following applies: Caliper mobility shift; 1.0 mM ATP or ATP Km; read-out: Enz EGFR_L858R IC50.
The target in experiment [2] is EGFR (d746-750) (Homo sapiens (Human), UniProt P00533, DEL746-750). Nature of the experiment: Biochemical EGFR inhibition assay, EGFR (d746-750). The note with it: Caliper mobility shift; 1.0 mM ATP or ATP Km; read-out: Enz EGFR_Exon19-del746-750 IC50.
Chain of EGFR (d746-750) (P00533 other isoform, or with tags, fused parts or gaps del 1-694/del 746-750 limits assumed): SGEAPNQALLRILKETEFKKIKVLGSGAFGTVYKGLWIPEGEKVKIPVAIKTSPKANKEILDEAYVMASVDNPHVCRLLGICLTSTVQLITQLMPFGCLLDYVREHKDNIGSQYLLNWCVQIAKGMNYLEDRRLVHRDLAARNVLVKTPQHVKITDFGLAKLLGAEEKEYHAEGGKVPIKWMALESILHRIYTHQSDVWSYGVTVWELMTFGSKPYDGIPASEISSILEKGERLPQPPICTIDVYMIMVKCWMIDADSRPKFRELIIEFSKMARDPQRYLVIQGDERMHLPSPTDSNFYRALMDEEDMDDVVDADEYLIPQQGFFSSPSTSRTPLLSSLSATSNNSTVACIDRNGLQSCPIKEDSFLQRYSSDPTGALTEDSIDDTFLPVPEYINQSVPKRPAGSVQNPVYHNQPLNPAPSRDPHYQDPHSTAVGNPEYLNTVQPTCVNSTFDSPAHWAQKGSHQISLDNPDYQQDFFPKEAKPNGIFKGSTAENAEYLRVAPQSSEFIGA
Experiment [3] concerns the target pEGFR (Tyr1068) in PC-9 cells (Ex19Del) (Homo sapiens (Human), UniProt P00533, DEL746-750). The experiment can be described thus: PC-9 pEGFR AlphaLISA assay. The format is cell-based. The following applies: 4 hours incubation, p-EGFR (Tyr1068) AlphaLISA, read-out: Ext pEGFR_PC-9 Ex19Del IC50. An outline of the steps: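 PC-9 cells seeded overnight in phenol-free DMEM with 10% FBS, then treated 4 h at 37°C with a 10-point, 4-fold compound series. Lysates assayed for pEGFR Tyr1068 by AlphaLISA SureFire; IC50 from % inhibition vs log concentration.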
(In Alpha technology, singlet oxygen from a donor bead excites a nearby acceptor bead.)

Among the data in patent US20250236608A1, “EGFR INHIBITORS” (Blueprint Medicines Corporation, priority 2022, published 2025) are IC50 values, retold here.

Chain of EGFR L858R (P00533 25-1210 L858R): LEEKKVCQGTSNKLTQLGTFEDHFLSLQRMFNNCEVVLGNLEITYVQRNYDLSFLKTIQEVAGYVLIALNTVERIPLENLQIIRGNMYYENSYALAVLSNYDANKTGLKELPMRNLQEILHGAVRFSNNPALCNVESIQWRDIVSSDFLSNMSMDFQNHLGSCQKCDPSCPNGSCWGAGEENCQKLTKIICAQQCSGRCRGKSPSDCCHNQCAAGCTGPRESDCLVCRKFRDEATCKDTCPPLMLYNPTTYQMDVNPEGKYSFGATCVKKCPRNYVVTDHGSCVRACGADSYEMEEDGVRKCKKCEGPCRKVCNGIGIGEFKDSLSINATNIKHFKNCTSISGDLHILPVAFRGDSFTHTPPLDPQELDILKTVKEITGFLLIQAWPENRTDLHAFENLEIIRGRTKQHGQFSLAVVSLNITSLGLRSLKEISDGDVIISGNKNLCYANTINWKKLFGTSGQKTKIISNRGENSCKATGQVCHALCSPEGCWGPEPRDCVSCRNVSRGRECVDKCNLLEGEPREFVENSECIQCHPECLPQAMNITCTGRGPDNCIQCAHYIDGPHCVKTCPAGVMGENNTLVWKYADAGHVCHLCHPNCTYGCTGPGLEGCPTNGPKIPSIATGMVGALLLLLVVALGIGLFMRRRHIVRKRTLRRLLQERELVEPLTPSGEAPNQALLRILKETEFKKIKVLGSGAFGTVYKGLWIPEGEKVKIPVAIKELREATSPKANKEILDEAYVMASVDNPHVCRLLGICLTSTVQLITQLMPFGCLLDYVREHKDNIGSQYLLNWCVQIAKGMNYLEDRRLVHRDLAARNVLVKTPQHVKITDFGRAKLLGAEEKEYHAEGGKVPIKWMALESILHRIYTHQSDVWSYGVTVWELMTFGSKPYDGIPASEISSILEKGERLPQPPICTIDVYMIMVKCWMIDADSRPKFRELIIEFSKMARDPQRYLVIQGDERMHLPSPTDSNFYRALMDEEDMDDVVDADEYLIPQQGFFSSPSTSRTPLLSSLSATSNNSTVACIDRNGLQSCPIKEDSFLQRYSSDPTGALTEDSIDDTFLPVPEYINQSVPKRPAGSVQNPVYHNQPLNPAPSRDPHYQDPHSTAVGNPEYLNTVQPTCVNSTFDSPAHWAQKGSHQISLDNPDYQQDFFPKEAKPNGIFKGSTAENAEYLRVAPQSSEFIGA
Chain of pEGFR (Tyr1068) in PC-9 cells (Ex19Del) (P00533 other isoform, or with tags, fused parts or gaps del 746-750): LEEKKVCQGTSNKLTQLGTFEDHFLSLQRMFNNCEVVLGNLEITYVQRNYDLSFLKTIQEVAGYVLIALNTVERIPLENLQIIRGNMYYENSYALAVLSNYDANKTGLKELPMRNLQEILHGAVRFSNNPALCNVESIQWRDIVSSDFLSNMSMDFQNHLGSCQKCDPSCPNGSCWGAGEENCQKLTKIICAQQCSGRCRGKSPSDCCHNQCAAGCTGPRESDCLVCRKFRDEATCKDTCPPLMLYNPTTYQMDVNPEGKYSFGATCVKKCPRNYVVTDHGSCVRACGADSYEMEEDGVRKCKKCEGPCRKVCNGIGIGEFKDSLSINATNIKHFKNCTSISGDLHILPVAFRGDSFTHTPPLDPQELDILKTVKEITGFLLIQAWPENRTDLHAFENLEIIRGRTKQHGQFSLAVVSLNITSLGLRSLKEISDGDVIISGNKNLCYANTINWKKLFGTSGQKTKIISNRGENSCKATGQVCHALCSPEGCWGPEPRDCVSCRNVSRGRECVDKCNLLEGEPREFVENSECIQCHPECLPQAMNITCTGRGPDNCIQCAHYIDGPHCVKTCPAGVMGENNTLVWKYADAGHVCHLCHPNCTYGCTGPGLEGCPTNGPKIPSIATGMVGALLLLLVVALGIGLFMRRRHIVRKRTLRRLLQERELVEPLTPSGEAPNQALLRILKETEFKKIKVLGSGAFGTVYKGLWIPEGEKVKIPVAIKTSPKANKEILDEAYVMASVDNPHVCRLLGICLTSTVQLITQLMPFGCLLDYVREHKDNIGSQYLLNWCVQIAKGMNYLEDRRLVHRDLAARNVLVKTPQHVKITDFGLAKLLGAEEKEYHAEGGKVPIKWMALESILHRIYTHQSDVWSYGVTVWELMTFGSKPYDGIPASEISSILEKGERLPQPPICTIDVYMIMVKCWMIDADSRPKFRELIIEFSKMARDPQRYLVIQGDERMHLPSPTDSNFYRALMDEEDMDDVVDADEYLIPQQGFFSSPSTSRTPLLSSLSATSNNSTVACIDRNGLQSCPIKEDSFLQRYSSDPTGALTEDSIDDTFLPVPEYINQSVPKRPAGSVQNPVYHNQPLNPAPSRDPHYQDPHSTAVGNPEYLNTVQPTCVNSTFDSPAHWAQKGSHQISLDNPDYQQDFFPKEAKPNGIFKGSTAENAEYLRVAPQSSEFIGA

Regarding `COc1cc2ncnc(-c3cn(C)nc3-c3ccccc3)c2cc1O[C@H]1CCN(C)C[C@@H]1F` [Example 2, 6-(((3S,4S)-3-fluoro-1-methylpiperidin-4-yl)oxy)-7-methoxy-4-(1-methyl-3-phenyl-1H-pyrazol-4-yl)quinazoline], the IC50 (as a rule, the concentration that inhibits the measured activity by half) in experiment [1] came out at 4.3 nM; in experiment [2], 1.9 nM; in experiment [3], 4.9 nM.

For the molecule `COc1cc2ncnc(-c3cn(C)nc3-c3ccccc3)c2cc1NC(=O)c1ccccc1C` [Example 197, N-(7-methoxy-4-(1-methyl-3-phenyl-1H-pyrazol-4-yl)quinazolin-6-yl)-2-methylbenzamide], the half-inhibitory concentration (IC50) in experiment [1] was determined as 1.8 nM; in experiment [2] it was 0.8 nM; in experiment [3], 2.5 nM.

For `CCc1cc2ncnc(-c3cn(C)nc3-c3ccccc3)c2nc1NC(=O)C12COCC1C2` (stereo not drawn) [Example 452, N-(7-ethyl-4-(1-methyl-3-phenyl-1H-pyrazol-4-yl)pyrido[3,2-d]pyrimidin-6-yl)-3-oxabicyclo[3.1.0]hexane-1-carboxamide], the IC50 amounted to 28.9 nM in experiment [1], 5.3 nM in experiment [2] and 14.8 nM in experiment [3].

For the molecule `COc1cc2ncnc(-c3cn(C)nc3-c3ccccc3)c2cc1N1CCOCC1` [Example 160, 4-(7-methoxy-4-(1-methyl-3-phenyl-1H-pyrazol-4-yl)quinazolin-6-yl)morpholine], the values for the IC50 in experiment [1], in experiment [2] and in experiment [3] were 20 nM, 2.9 nM and 8.3 nM, respectively.

`COc1cc2ncnc(-c3cn(C)nc3-c3ccccc3)c2cc1NC(=O)C1C2COCC21` (stereo not drawn) [Example 223, N-(7-methoxy-4-(1-methyl-3-phenyl-1H-pyrazol-4-yl)quinazolin-6-yl)-3-oxabicyclo[3.1.0]hexane-6-carboxamide]: the IC50 in experiment [1] turned out to be 2.9 nM; in experiment [2] it was 2.1 nM; in experiment [3], 3.2 nM.

In the case of `CN1CC[C@@H](Oc2cc3c(-c4cn(C)nc4-c4ccccc4)ncnc3cc2OC(F)F)[C@H](F)C1` [Example 475, 7-(difluoromethoxy)-6-{[(3R,4R)-3-fluoro-1-methylpiperidin-4-yl]oxy}-4-(1-methyl-3-phenyl-1H-pyrazol-4-yl)quinazoline], the results for the IC50 in experiment [1], in experiment [2] and in experiment [3] were 65.5 nM, 21 nM and 71.6 nM, respectively.

As to `COc1cc2ncnc(-c3cn(CC(F)F)nc3-c3ccccc3)c2nc1OC` [Example 20, 4-(1-(2,2-difluoroethyl)-3-phenyl-1H-pyrazol-4-yl)-6,7-dimethoxypyrido[3,2-d]pyrimidine], the IC50 worked out at 1.2 nM in experiment [1], 0.5 nM in experiment [2] and 0.9 nM in experiment [3].

As to `COc1cc2ncnc(-c3cn(C)nc3-c3ccccc3)c2cc1NC(=O)C12CC(F)(C1)C2` [Example 342, 3-fluoro-N-(7-methoxy-4-(1-methyl-3-phenyl-1H-pyrazol-4-yl)quinazolin-6-yl)bicyclo[1.1.1]pentane-1-carboxamide], the IC50 turned out to be 6.7 nM in experiment [1], 3.5 nM in experiment [2] and 11.2 nM in experiment [3].

With `COc1cc2ncnc(-c3cn(C)nc3-c3ccccc3)c2cc1NC(=O)c1cnn(CC(F)(F)F)c1` [Example 203, N-(7-methoxy-4-(1-methyl-3-phenyl-1H-pyrazol-4-yl)quinazolin-6-yl)-1-(2,2,2-trifluoroethyl)-1H-pyrazole-4-carboxamide], the values for the IC50 in experiment [1], in experiment [2] and in experiment [3] were 2.1 nM, 1.1 nM and 4.9 nM, respectively.

`CCOc1cc2ncnc(-c3cn(C)nc3-c3ccccc3)c2cc1NC(=O)[C@]12C[C@H]1CN(C)C2` (single isomer, unassigned) [Example 257, (1R,5R)—N-(7-ethoxy-4-(1-methyl-3-phenyl-1H-pyrazol-4-yl)quinazolin-6-yl)-3-methyl-3-azabicyclo[3.1.0]hexane-1-carboxamide or (1S,5S)—N-(7-ethoxy-4-(1-methyl-3-phenyl-1H-pyrazol-4-yl)quinazolin-6-yl)-3-methyl-3-azabicyclo[3.1.0]hexane-1-carboxamide]: the IC50 was 1.5 nM in experiment [1], 0.9 nM in experiment [2] and 4.8 nM in experiment [3].

`CCOc1cc2ncnc(-c3cn(C)nc3-c3ccccc3)c2nc1NC(=O)[C@]12C[C@H]1CN(C)C2` (single isomer, unassigned) [Example 378, (1R,5R)—N-(7-ethoxy-4-(1-methyl-3-phenyl-1H-pyrazol-4-yl)pyrido[3,2-d]pyrimidin-6-yl)-3-methyl-3-azabicyclo[3.1.0]hexane-1-carboxamide or (1S,5S)—N-(7-ethoxy-4-(1-methyl-3-phenyl-1H-pyrazol-4-yl)pyrido[3,2-d]pyrimidin-6-yl)-3-methyl-3-azabicyclo[3.1.0]hexane-1-carboxamide]: the IC50 in experiment [1] is 1.3 nM; in experiment [2] it was 0.7 nM; in experiment [3], 1.2 nM.

With `COc1cc2ncnc(-c3cn(C)nc3-c3ccc(F)cc3)c2cc1NC(=O)C1CC(F)(F)C1` [Example 212, 3,3-difluoro-N-(4-(3-(4-fluorophenyl)-1-methyl-1H-pyrazol-4-yl)-7-methoxyquinazolin-6-yl)cyclobutane-1-carboxamide], the IC50 in experiment [1] turned out to be 0.4 nM; in experiment [2], 0.2 nM; in experiment [3], 1 nM.

`COc1cc2ncnc(-c3cn(C)nc3-c3ccccc3)c2cc1NC(=O)C[C@H]1CCCO1` [Example 280, (R)—N-(7-methoxy-4-(1-methyl-3-phenyl-1H-pyrazol-4-yl)quinazolin-6-yl)-2-(tetrahydrofuran-2-yl) acetamide]: the results for the IC50 in experiment [1], in experiment [2] and in experiment [3] were 2.4 nM, 1.7 nM and 2.5 nM, respectively.

Regarding `Cn1cc(-c2ccc3c(-c4c[nH]nc4-c4cc(F)ccc4F)ncnc3c2)cn1` [Example 444, 4-(3-(2,5-difluorophenyl)-1H-pyrazol-4-yl)-7-(1-methyl-1H-pyrazol-4-yl)quinazoline], the IC50 stood at 0.5 nM in experiment [1], 0.4 nM in experiment [2] and 0.5 nM in experiment [3].

`COc1cc2ncnc(-c3cn(C)nc3-c3ccccc3)c2nc1NC(=O)[C@@]12CN(C)C[C@@H]1C2(F)F` (single isomer, unassigned) [Example 417, (1S,5R)-6,6-difluoro-N-(7-methoxy-4-(1-methyl-3-phenyl-1H-pyrazol-4-yl)pyrido[3,2-d]pyrimidin-6-yl)-3-methyl-3-azabicyclo[3.1.0]hexane-1-carboxamide or (1R,5S)-6,6-difluoro-N-(7-methoxy-4-(1-methyl-3-phenyl-1H-pyrazol-4-yl)pyrido[3,2-d]pyrimidin-6-yl)-3-methyl-3-azabicyclo[3.1.0]hexane-1-carboxamide]: the values for the IC50 in experiment [1], in experiment [2] and in experiment [3] were 1.5 nM, 0.8 nM and 0.9 nM, respectively.

For `COc1cc2ncnc(-c3cn(C)nc3-c3ccccc3)c2cc1-c1cnc(C(C)(C)O)s1` [Example 149, 2-(5-(7-methoxy-4-(1-methyl-3-phenyl-1H-pyrazol-4-yl)quinazolin-6-yl)thiazol-2-yl) propan-2-ol], the values for the IC50 in experiment [1], in experiment [2] and in experiment [3] were 4.9 nM, 2.1 nM and 12.8 nM, respectively.

For `CCOc1cc2ncnc(-c3cn(C)nc3-c3ccccc3)c2nc1NC(=O)[C@@]12COC[C@@H]1C2` (single isomer, unassigned) [Example 380, (1R,5R)—N-(7-ethoxy-4-(1-methyl-3-phenyl-1H-pyrazol-4-yl)pyrido[3,2-d]pyrimidin-6-yl)-3-oxabicyclo[3.1.0]hexane-1-carboxamide or (1S,5S)—N-(7-ethoxy-4-(1-methyl-3-phenyl-1H-pyrazol-4-yl)pyrido[3,2-d]pyrimidin-6-yl)-3-oxabicyclo[3.1.0]hexane-1-carboxamide], the IC50 was 2.5 nM in experiment [1], 0.7 nM in experiment [2] and 1.4 nM in experiment [3].

In the case of `COc1cc2ncnc(-c3cn(C)nc3-c3ccccc3)c2cc1NC(=O)C[C@@H]1CCCO1` [Example 281, (S)—N-(7-methoxy-4-(1-methyl-3-phenyl-1H-pyrazol-4-yl)quinazolin-6-yl)-2-(tetrahydrofuran-2-yl) acetamide], the IC50 came out at 2.2 nM in experiment [1], 1.4 nM in experiment [2] and 2.3 nM in experiment [3].

Consider `COc1cc2ncnc(-c3cn(C)nc3-c3ccccc3)c2cc1NC(=O)C1(C)COC1` [Example 345, N-(7-methoxy-4-(1-methyl-3-phenyl-1H-pyrazol-4-yl)quinazolin-6-yl)-3-methyloxetane-3-carboxamide], for which the concentration for half-maximal inhibition (IC50) in experiment [1] is 4.7 nM; in experiment [2] it was 1.9 nM; in experiment [3], 7.8 nM.

On to `CCn1cc(-c2ncnc3cc(OC)c(NC(=O)c4cnn(C(F)(F)F)c4)nc23)c(-c2ccccc2)n1` [Example 314, N-(4-(1-ethyl-3-phenyl-1H-pyrazol-4-yl)-7-methoxypyrido[3,2-d]pyrimidin-6-yl)-1-(trifluoromethyl)-1H-pyrazole-4-carboxamide], for which the figures for the IC50 in experiment [1], in experiment [2] and in experiment [3] were 1.4 nM, 0.8 nM and 1.1 nM, respectively.

Regarding `COc1cc2ncnc(-c3cn(CCO)nc3-c3ccccc3)c2nc1NC(=O)C12CC(C1)C2` [Example 414, N-(4-(1-(2-hydroxyethyl)-3-phenyl-1H-pyrazol-4-yl)-7-methoxypyrido[3,2-d]pyrimidin-6-yl)bicyclo[1.1.1]pentane-1-carboxamide], the results for the IC50 in experiment [1], in experiment [2] and in experiment [3] were 2.1 nM, 1.3 nM and 1.2 nM, respectively.

Regarding `COc1cc2ncnc(-c3cn(C)nc3-c3ccccc3)c2cc1-c1cccc2c1cnn2C` [Example 141, 7-methoxy-6-(1-methyl-1H-indazol-4-yl)-4-(1-methyl-3-phenyl-1H-pyrazol-4-yl)quinazoline], the results for the IC50 in experiment [1], in experiment [2] and in experiment [3] were 7.1 nM, 1.9 nM and 7.6 nM, respectively.
